For one data set, the system named is A549. Nature of the data set: Antiproliferative activity against human A549 cells assessed as reduction in cell viability at 0.4 uM by CCK8 assay. In kind it is functional, cell-based. Particulars: time 3-6 day.
Data set [1] concerns Lewis lung carcinoma cell line. Nature of the data set: Antiproliferative activity against mouse Lewis lung carcinoma cell line assessed as reduction in cell viability at 0.4 uM by CCK8 assay. In kind it is functional, cell-based. Particulars: time 3-6 day.
The next data set deals with NCI-H1975. Put plainly: Antiproliferative activity against human NCI-H1975 cells assessed as reduction in cell viability at 0.4 uM by CCK8 assay. In kind it is functional, cell-based. The following applies: time 3-6 day.
Data set [2] can be described thus: Cmax in male ICR mouse at 10 mg/kg, po measured up to 24 hrs by LC-MS/MS analysis. In kind it is ADME, organism-based. The following applies: in vivo.
The nature of data set [3]: Observed AUC (0 to infinity) in male ICR mouse at 1 mg/kg, iv measured up to 24 hrs by LC-MS/MS analysis. Type of data set: ADME, organism-based. The following applies: in vivo.
A short description of data set [4]: Toxicity in BALB/c mouse xenografted with human NCI-H520 cells assessed as adverse effects at 50 to 100 mg/kg, po administered daily via gavage and measured every 3 days for 14 days. Type of data set: organism-based. Particulars: in vivo, 336 h, dose 50-100 mg/kg, time 14 day.

With `O=C1C(Cl)=C(NCCc2cccc(F)c2)C(=O)c2ncccc21`, the Activity entry is “Time-dependent-effect” in the data set with A549, “Time-dependent-effect” in data set [1], “Time-dependent-effect” in the data set with NCI-H1975 and “Non-toxic” in data set [4]. Besides, the Cmax in data set [2] came out at 134 ng/mL. In addition, the AUC(0-inf) in data set [3] amounted to 10.1 ng·h/mL.

Values taken from ChEMBL document CHEMBL6109083, “Design, synthesis, and antitumor activity of NSDs inhibitors targeting lung squamous cell carcinoma” (Eur J Med Chem, 2025).
